Source: PubChem BioAssay (NCI)
Where “and” joins values, the source holds several entries; their conditions need not be identical. Equal values may be shown once.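 Grown in 96-well plates, cells were treated for 48 hours with each compound at five concentrations. Insufficient inhibition: endpoint recorded as highest concentration tested. The concentration for 50% growth inhibition is given as GI50. TGI: total growth inhibition.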

Assays:
Experiment in all cases: NCI anticancer screen, dose series, 48 h
U251 CNS = test system: U251 CNS
SR leukemia = test system: SR leukemia
UO-31 renal = test system: UO-31 renal
HOP-62 NSCLC = test system: HOP-62 NSCLC
NCI-H23 lung = test system: NCI-H23 lung
IGROV1 ovarian = test system: IGROV1 ovarian
OVCAR-8 ovarian = test system: OVCAR-8 ovarian
MALME-3M melanoma = test system: MALME-3M melanoma
ACHN renal = test system: ACHN renal
A498 renal = test system: A498 renal

| SMILES | GI50 (U251 CNS) [nM] | TGI (U251 CNS) | GI50 (SR leukemia) [nM] | TGI (SR leukemia) [nM] | GI50 (UO-31 renal) [nM] | TGI (UO-31 renal) | GI50 (HOP-62 NSCLC) [nM] | TGI (HOP-62 NSCLC) | GI50 (NCI-H23 lung) [nM] | TGI (NCI-H23 lung) | GI50 (IGROV1 ovarian) [nM] | TGI (IGROV1 ovarian) | GI50 (OVCAR-8 ovarian) | TGI (OVCAR-8 ovarian) | GI50 (MALME-3M melanoma) [nM] | TGI (MALME-3M melanoma) | GI50 (ACHN renal) [nM] | TGI (ACHN renal) | GI50 (A498 renal) [nM] | TGI (A498 renal) |
| --- | --- | --- | --- | --- | --- | --- | --- | --- | --- | --- | --- | --- | --- | --- | --- | --- | --- | --- | --- | --- |
| COc1cc2nc3cc([N+](=O)[O-])ccc3c(NCCCNCCO)c2cc1OC | 149 | 433 nM | 238 | 1710 | 2150 | 14200 nM | 146 | 422 nM | 143 | 616 nM | 225 | 672 nM | 202 nM | 721 nM | 189 | 359 nM | 256 | 914 nM | 214 | 527 nM |
| COc1cc2c(c(OC)c1OC)-c1ccc(OC)c(=O)cc1[C@@H](NC(=O)c1ccccc1)CC2 | – | 4060 nM | – | > 100000 | > 30000 | > 100000 nM | < 3 | 30000 nM and > 100000 nM | – | 2320 nM | 5.87 | 30000 nM and 55200 nM | 9.35 nM and 13.8 nM | 30000 nM and 13800 nM | < 3 | 30000 nM and 80100 nM | 104 | 30000 nM and > 100000 nM | < 3 | – |
| Oc1ccccc1C(Sc1nc2ccccc2s1)Sc1nc2ccccc2s1 | – | > 100000 nM | – | > 100000 | – | > 100000 nM | – | > 100000 nM | – | > 100000 nM | – | > 100000 nM | – | > 100000 nM | – | > 100000 nM | – | > 100000 nM | – | > 100000 nM |
| O=C(NC1=CC(=O)c2ccccc2C1=O)c1ccccc1 | 420 | 11600 nM | 709 | 4850 | 481 | 2180 nM | 2760 | 16000 nM | 1120 | 9500 nM | 1260 | 2850 nM | 1670 nM | 5630 nM | 1700 | 3270 nM | 1010 | 2270 nM | 4460 | 17500 nM |
| COc1cccc2c1C(=O)c1c(O)c3c(c(O)c1C2=O)C[C@@](O)(C(C)=O)C[C@@H]3OC1OC(C)C(O)C(N)C1Br (stereo partly specified) | – | 1070 nM and 2210 nM | – | 18.5 | 134 | 329 nM and 590 nM | – | 78.5 nM and 236 nM | 17.4 | 206 nM and 177 nM | – | 1410 nM and 9050 nM | 33.1 nM | 207 nM and 646 nM | 21.5 | 297 nM and 225 nM | – | 174 nM and 139 nM | 65.7 | 532 nM and 228 nM |
| COc1ccc(C(=O)C(C(=O)CCC(=O)Nc2cccc(Cl)c2)c2ccc(OC)cc2)cc1 (stereo unspecified) | – | > 100000 nM | – | > 100000 | – | > 100000 nM | – | > 100000 nM | – | > 100000 nM | – | > 100000 nM | – | > 100000 nM | – | > 100000 nM | – | > 100000 nM | – | > 100000 nM |
